Patent US8293240B2, “Method of treating drug-resistant cancer” (The Regents of the University of Colorado, priority 2004, dated 2012)

How the values were obtained:
[1] = 5-FU that is taken up by the cell; cited from earlier work
[2] = system: HL60 MDR human leukemia cells; assay: percent death of HL60 MDR cells (flow cytometry, live versus dead); format: cell-based
Procedure: Dot plots as a function of live versus dead cells. The cells were cultured at a concentration of 0.5 to 1 million cells per ml. Cells were untreated or treated with or 2-deoxy-D-glucose and/or etomoxir and/or antibodies to UCP2 and used at dilutions or concentrations as indicated on the figure. The cells were cultured in the presence or absence of etomoxir at 100 micrograms/ml for 24 hours followed by treatment with antibody as indicated for an additional 24 or 48 hours (i.e. totals of 48 hours or 72 hours respectively). Cells were harvested and analyzed by flow cytometry. Each dot on the dot plot represents one cell. Five thousand cells were assessed for forward scatter (FS), as a function of cell size, versus side scatter (SS), as a function of cellular granularity. The upper elipse represents live cells by these criterion and the lower elipse in each dot plot represents the dead cells.
HL60 MDR human leukemia cells were cultured as described above under “Materials and Methods”. Cells were untreated or treated with etomoxir, with 2-deoxy-D-glucose, or with a combination of etomoxir and 2-deoxy-D-glucose, at concentrations indicated in FIG. 27 for 24 hours. Cells were harvested and analyzed by flow cytometry.
Referring to FIGS. 31 and 32, HL60 MDR cells, cultured as described in Example 21, were untreated or treated with etomoxir, with 2-deoxy-D-glucose, or with a combination of etomoxir and 2-deoxy-D-glucose, at concentrations indicated in FIG. 31 for 48 hours. Cells were harvested and analyzed by flow cytometry.
Referring to FIGS. 35 and 36, HL60 MDR cells, cultured as described in Example 21, were treated with anti-UCP2 antibody and otherwise untreated or treated simultaneously with etomoxir, 2-deoxy-D-glucose, or both, at concentrations indicated in FIG. 35 for 48 hours. Cells were harvested and analyzed by flow cytometry.

HL60 MDR tumor = assay: tumor volume of HL60 MDR tumor implanted in nude mice; format: in vivo; settings: for tumor volume: 200 ug Etomoxir, 2.5 mM 2-Deoxy-D-glucose
Source text: Tumor implantation. Mice were purchased from the Animal Production Program of National Cancer Institute, Frederick, Md. The animals used were Athymic Ncr-nu/nu (strain code 01B74). HL60 MDR cells were harvested and reconstituted at 1 million cells per 100 microliters of phosphate buffered saline. One million tumor cells per injection site were implanted subcutaneously on two sites of the animal's back. Treatments began at exactly seven days post tumor implantation. Tumor size/volume was monitored twice weekly using measurement calipers, with the formula Tumor Volume=π×(short diameter)^2×(long diameter)/6.
Mice experiments with fatty acid metabolism and glucose metabolism inhibitors. Fatty acid metabolism inhibitors were exemplified by etomoxir at 200 micrograms/day. Glucose metabolism inhibitors were exemplified by 2-deoxy-D-glucose at 2.5 mM in 100 microliters daily. The combination was administered daily, etomoxir at 200 micrograms and 2-deoxy-D-glucose at 2.5 mM in 100 microliters. All drugs were administered intra-peritoneally. Fluorouracil, at 20 mg per kilogram mouse, was injected intra-peritoneally once a week
HL60 MDR human leukemia cells were cultured and implanted in nude mice as described above under “Materials and Methods”. The mice were given 200 ug of Etomoxir, 2.5 mM 2-Deoxy-D-glucose, or both 200 ug of Etomoxir and 2.5 mM 2-Deoxy-D-glucose given daily by IP injection. Treatment began exactly one week after tumor implantation.
Mice were purchased from National Cancer Institute, Animal Production Program (Frederick, Md.). The animals used were Athymic Ncr-nu/nu (Strain code 01B74). HL60 MDR cells were harvested and reconstituted at 1 million cells per 100 microliters of phosphate buffered saline. One million tumor cells/per injection site were implanted subcutaneously on two sites of the animal's back. Treatments began at exactly seven days post tumor implantation. Tumor size/volume was monitored twice weekly using measurement calipers with the formula for Tumor Volume=π(short diameter)^2(long diameter)/(divided by )6. […]

[3] = system: RD cells (rhabdomyosarcoma cells-not drug resistant); assay: percent death of RD cells (flow cytometry, live versus dead); format: cell-based
Procedure: The cells were cultured at a concentration of 0.5 to 1 million cells per ml. Cells were untreated or treated with or 2-deoxy-D-glucose and/or etomoxir and/or antibodies to UCP2 and used at dilutions or concentrations as indicated on the figure. The cells were cultured in the presence or absence of etomoxir at 100 micrograms/ml for 24 hours followed by treatment with antibody as indicated for an additional 24 or 48 hours (i.e. totals of 48 hours or 72 hours respectively). Cells were harvested and analyzed by flow cytometry. Each dot on the dot plot represents one cell. Five thousand cells were assessed for forward scatter (FS), as a function of cell size, versus side scatter (SS), as a function of cellular granularity. The upper elipse represents live cells by these criterion and the lower elipse in each dot plot represents the dead cells.
Referring to FIGS. 29 and 30, RD cells (rhabdomyosarcoma cells-not drug resistant), cultured as described above under “Materials and Methods” were untreated or treated with etomoxir, with 2-deoxy-D-glucose, or with a combination of etomoxir and 2-deoxy-D-glucose, at concentrations indicated in FIG. 29 for 24 hours. Cells were harvested and analyzed by flow cytometry.
Referring to FIGS. 33 and 34, RD cells, cultured as described in Example 22, were untreated or treated with etomoxir, with 2-deoxy-D-glucose, or with a combination of etomoxir and 2-deoxy-D-glucose, at concentrations indicated in FIG. 33 for 48 hours. Cells were harvested and analyzed by flow cytometry.
Referring to FIGS. 37 and 38, RD cells, cultured as described in Example 22, were treated with anti-UCP2 antibody and otherwise untreated or treated simultaneously with etomoxir, 2-deoxy-D-glucose, or both, at concentrations indicated in FIG. 37 for 48 hours. Cells were harvested and analyzed by flow cytometry.

B16F1 = assay: % death of B16F1 cells treated or not with cerulenin (flow cytometry); format: cell-based, mouse; settings: B16F1, 25 ug/mL Cerulenin
Procedure: (§1) Statistical Analysis, Percents, and Geometric Mean Values Percents. Gating is a tool provided by Cell Quest software and allows for the analysis of a certain population of cells. Gating around both the live and dead cell populations gave a percent of the cell numbers that was in each population. After the gates were drawn, a percent value of dead cells was calculated by taking the number of dead cells divided by the number of total cells and multiplying by one hundred.
(§2) This example illustrates an embodiment of the invention, where multi-drug resistant cancer cells were exposed to compositions of the invention. Analysis of the cells was performed using flow cytometry. The flow cytometry experiments were performed as follows. The cells were harvested, counted, and resuspended as described above. For DNA staining, the cells were washed and resuspended in ice-cold PBS and fixed by the dropwise addition of 95% ethanol. The cells were then incubated for 30 minutes on ice, washed, and resuspended in PBS containing 1% formaldehyde and 0.01% Tween. The cells were incubated with 50 units of DNAse and washed with PBS containing 5% DNAse. The cells were then incubated with anti DNA Fab (166, kind gift of Dr. Susan Wallace, University of Vermont), then washed and stained with a fluorescein conjugated second step anti-mouse immunoglobulin. The cells were then washed and resuspended in PBS/3% BSA/1% formaldehyde. The cells were stained for intracellular H2O2 using 6-carboxy-2′,7′-dichlorodihydrofluorescein diacetate (DCF-DA, Molecular Probes, Eugene, Oreg.). The cells were incubated with 1 mM DCF-DA for 20 minutes, washed twice in PBS containing 5% fetal calf serum and analyzed using flow cytometry. The mitochondrial membrane potential was assessed using MitoTracker Red (CM-H2XROS, Molecular Probes, Eugene, Oreg.). The cells were resuspended in warm (37° C.) PBS containing a final concentration of 0.5 micromolar of dye. The cells were then incubated for 30 minutes, pelleted, and resuspended in prewarmed medium for analysis. The data was acquired on a Coulter Elite Epics or Excel flow cytometer (Coulter, Hialeah, Fla.) and analyzed with CellQuest software, (Becton Dickinson, San Jose, Calif.). […] Each sample population was classified for cell size (forward scatter) and complexity (side scatter), gated on a population of interest and evaluated using 40,000 cells. Each figure describing flow cytometric data represents one of at least four replicate experiments. […]
(§3) The flow cytometry experiments were performed as follows. Once the samples were prepared and transferred into flow cytometric tubes, the samples were analyzed on a Becton/Dickinson Flow Cytometer. […] Statistical analysis, percents, and geometric mean values percents were calculated as described above.

HL60 MDR = assay: % death / microscopy of HL60 MDR cells treated or not with cerulenin; format: cell-based, human; settings: for % Death: 25 ug/mL Cerulenin
Procedure: as §1, §2
as §3, with “above. […]” for “above.”

L1210 DDP = assay: % death of L1210 DDP cells treated or not with cerulenin (flow cytometry); format: cell-based; settings: for % Death: 25 ug/mL Cerulenin
Procedure: as §1
(§4) This example illustrates an embodiment of the invention, where multi-drug resistant cancer cells were exposed to compositions of the invention. Analysis of the cells was performed using flow cytometry. The flow cytometry experiments were performed as follows. The cells were harvested, counted, and resuspended as described above. For DNA staining, the cells were washed and resuspended in ice-cold PBS and fixed by the dropwise addition of 95% ethanol. The cells were then incubated for 30 minutes on ice, washed, and resuspended in PBS containing 1% formaldehyde and 0.01% Tween. The cells were incubated with 50 units of DNAse and washed with PBS containing 5% DNAse. […] The cells were incubated with 1 mM DCF-DA for 20 minutes, washed twice in PBS containing 5% fetal calf serum and analyzed using flow cytometry. The mitochondrial membrane potential was assessed using MitoTracker Red (CM-H2XROS, Molecular Probes, Eugene, Oreg.). […] The data was acquired on a Coulter Elite Epics or Excel flow cytometer (Coulter, Hialeah, Fla.) and analyzed with CellQuest software, (Becton Dickinson, San Jose, Calif.). […] Each sample population was classified for cell size (forward scatter) and complexity (side scatter), gated on a population of interest and evaluated using 40,000 cells. […]
as §3

L1210 = assay: % death of L1210 cells treated or not with cerulenin (flow cytometry); format: cell-based; settings: L1210, 25 ug/mL Cerulenin
Procedure: as §1
as §4, with “above.” for “above. For DNA staining, the cells were washed and resuspended in ice-cold PBS and fixed by the dropwise addition of 95% ethanol. The cells were then incubated for 30 minutes on ice, washed, and resuspended in PBS containing 1% formaldehyde and 0.01% Tween. The cells were incubated with 50 units of DNAse and washed with PBS containing 5% DNAse.”

HL60 = assay: % death / microscopy of HL60 cells treated or not with cerulenin; format: cell-based, human; settings: for % Death: HL60, 25 ug/mL Cerulenin
Procedure: as §1, §4
as §3, with “above. […]” for “above.”

B16F1 melanoma cells = assay: mice injected with B16F1 melanoma cells exposed or not to cerulenin; format: in vivo; settings: for tumor observation and activity of mouse: B16F1 10^6 cells treated w/25 ug/ml cerulenin 5.0 hrs before injection
Source text: Highly carcinogenic B16F1 melanoma cells were either exposed (“treated”) or not exposed to cerulenin, then injected into male mice.

O=c1[nH]cc(F)c(=O)[nH]1 [5-FU, 5-Fluorouracil]
half-life in vivo [1]: about 18 minutes

OC[C@H]1O[C@H](O)CC(O)[C@@H]1O (stereo partly drawn) [2-deoxy-D-glucose]
percent of cell deaths ([2]; HL60 MDR cells after 24 hours): 16% | percent of cell deaths ([2]; HL60 MDR cells after 48 hours): 38% | tumor volume (HL60 MDR tumor; Day 7, daily IP from one week after implantation): 35 mm^3 | tumor volume (HL60 MDR tumor; Day 9, daily IP): 51.56 mm^3 | tumor volume (HL60 MDR tumor; Day 15, daily IP): 158.55 mm^3 | tumor volume (HL60 MDR tumor; Day 21, daily IP): 1,181.61 mm^3 | effect on tumor growth (HL60 MDR tumor; HL60 MDR in nude mice, 21 day period, single agent): increase in tumor growth | percent of cell deaths ([3]; RD cells after 24 hours): 46% | percent of cell deaths ([3]; RD cells after 48 hours): 63%

C/C=C/C/C=C/CCC(=O)[C@H]1O[C@H]1C(N)=O [cerulenin]
% Death (B16F1; 4 Hours (Table 1)): 0% | % Death (B16F1; 5.0 Hours (Table 2)): 67% | % Death (B16F1; 24 hours (Table 2)): 72% | % Death (B16F1; .0 Hours (Table 1)): 1% | cell death in microscopy images (HL60 MDR; HL60 MDR cells treated with cerulenin, FIGS. 4E and 4F): large numbers of cell death | % Death (HL60 MDR; HL60 MDR, 4 Hours (Table 1)): 9.6% | % Death (HL60 MDR; HL60 MDR, .0 Hours (Table 1)): 3% | cell death compared to control and non-multidrug resistant cancer cells (HL60 MDR; HL60 MDR, after treatment with cerulenin): greater amounts of cell death | % Death (L1210 DDP; 7.0 Hours): 14% | % Death (L1210 DDP; 24 Hours): 92% | cell death compared to control and non-multidrug resistant cancer cells (L1210 DDP; after treatment with cerulenin): greater amounts of cell death | % Death (L1210; 7.0 Hours): 27% | % Death (L1210; 24 Hours): 89% | % Death (HL60; 4 Hours (Table 1)): 4% | % Death (HL60; .0 Hours (Table 1)): 1% | cell survival in microscopy images (HL60; HL60 cells treated with cerulenin, FIG. 4C): large numbers of the cells survived | tumor observation and activity of mouse (B16F1 melanoma cells; Day 9): Day 9 no visible sign of tumors - very active | tumor observation and activity of mouse (B16F1 melanoma cells; Day 12): Day 12 no visible tumors - very active (FIG. 5D) | tumor observation and activity of mouse (B16F1 melanoma cells; Day 13): Day 13 no visible tumors - very active | development of lethal cancers (B16F1 melanoma cells; mice exposed to melanoma cells treated with cerulenin, during the experiment): did not develop lethal cancers
